In this assay the target is F508delCFTR (Homo sapiens, UniProt P13569, DEL508-508). Description: Cell Surface Expression-Horse Radish Peroxidase (CSE-HRP) assay. Type of assay: cell-based. Details: expressed in transfected cells; host or cells: CFBE41o- human lung derived epithelial cell line, doxycycline-inducible. Conditions: CFBE4lo-F508delCFTR-HRP cells; for pEC50: 18-24 hours at 33° C., 8-point curve, highest concentration 20 μM, luminescence readout; for Emax: maximum % activity at any tested concentration, normalized to on-plate positive control (3 μM Example 1). Put shortly:
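Following 18-24 h compound exposure at 33° C. Expression was doxycycline-induced beforehand. % activity versus DMSO and a 3 μM corrector control gave maximum activity and EC50 from a variable-Hill sigmoidal fit.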

SMILES strings stand for the structures. pEC50: −log10 of the molar value.

Chain of F508delCFTR (P13569 with tags, fused parts or gaps DEL508-508): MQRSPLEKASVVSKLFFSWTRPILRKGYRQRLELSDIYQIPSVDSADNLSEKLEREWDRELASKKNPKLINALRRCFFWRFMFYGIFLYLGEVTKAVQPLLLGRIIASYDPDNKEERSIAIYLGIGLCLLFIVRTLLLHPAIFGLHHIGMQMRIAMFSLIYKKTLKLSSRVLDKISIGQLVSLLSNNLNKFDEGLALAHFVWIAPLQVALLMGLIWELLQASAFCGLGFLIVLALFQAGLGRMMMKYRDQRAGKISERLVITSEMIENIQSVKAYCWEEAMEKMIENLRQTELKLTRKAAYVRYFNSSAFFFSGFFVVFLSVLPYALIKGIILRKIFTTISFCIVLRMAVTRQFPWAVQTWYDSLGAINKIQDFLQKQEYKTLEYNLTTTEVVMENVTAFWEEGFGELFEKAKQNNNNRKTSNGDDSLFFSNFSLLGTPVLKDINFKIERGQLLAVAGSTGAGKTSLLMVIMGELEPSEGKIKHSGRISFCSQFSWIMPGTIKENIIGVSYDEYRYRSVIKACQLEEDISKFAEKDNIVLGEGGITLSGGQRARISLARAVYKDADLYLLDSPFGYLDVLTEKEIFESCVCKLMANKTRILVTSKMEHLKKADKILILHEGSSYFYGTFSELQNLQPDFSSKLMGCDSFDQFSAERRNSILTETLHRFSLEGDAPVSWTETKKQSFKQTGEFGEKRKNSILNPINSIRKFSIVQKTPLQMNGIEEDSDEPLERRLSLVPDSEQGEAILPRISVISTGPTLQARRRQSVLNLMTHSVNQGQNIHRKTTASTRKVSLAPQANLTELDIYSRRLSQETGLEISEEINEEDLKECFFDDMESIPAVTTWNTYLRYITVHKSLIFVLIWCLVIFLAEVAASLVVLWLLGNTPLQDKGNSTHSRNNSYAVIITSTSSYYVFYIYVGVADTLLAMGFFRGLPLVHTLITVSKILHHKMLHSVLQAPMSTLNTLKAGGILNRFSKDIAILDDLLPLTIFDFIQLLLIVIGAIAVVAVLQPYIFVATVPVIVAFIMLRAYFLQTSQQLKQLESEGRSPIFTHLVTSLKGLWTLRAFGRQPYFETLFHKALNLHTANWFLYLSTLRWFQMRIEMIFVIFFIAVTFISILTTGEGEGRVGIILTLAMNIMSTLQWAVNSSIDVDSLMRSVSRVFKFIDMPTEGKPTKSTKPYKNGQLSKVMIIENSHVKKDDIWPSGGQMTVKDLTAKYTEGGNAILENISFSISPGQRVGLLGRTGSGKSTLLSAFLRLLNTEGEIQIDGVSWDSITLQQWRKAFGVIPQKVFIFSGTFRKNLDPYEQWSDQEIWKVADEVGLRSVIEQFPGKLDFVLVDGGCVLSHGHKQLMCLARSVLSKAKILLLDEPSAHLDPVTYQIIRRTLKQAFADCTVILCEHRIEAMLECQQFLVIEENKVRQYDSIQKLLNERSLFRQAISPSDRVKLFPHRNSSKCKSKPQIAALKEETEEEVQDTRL

In general, pEC50 refers to −log10 of the EC50, conventionally taken in molar units. Higher therefore signals a small EC50. The Emax is the greatest response seen or fitted, relative to the assay's reference. The molecule `O=C(NC1CC(c2ccccc2)Oc2ccccc21)C1(c2ccc3c(c2)OC(F)(F)O3)CC1` (centres unmarked) [Example 67, 1-(2,2-difluoro-1,3-benzodioxol-5-yl)-N-(2-phenyl-3,4-dihydro-2H-chromen-4-yl)cyclopropanecarboxamide] showed a negative logarithm of the EC50 (pEC50) of 5.23 and an Emax of 128%.

Molecule `O=C(NC1CC(c2ccc(Cl)cc2)Oc2ccccc21)C1(c2ccc3c(c2)OC(F)(F)O3)CC1` (centres unmarked) [Example 68, N-[2-(4-chlorophenyl)-3,4-dihydro-2H-chromen-4-yl]-1-(2,2-difluoro-1,3-benzodioxol-5-yl)cyclopropanecarboxamide] showed a pEC50 of 6.06 and an Emax of 89%.

With `COc1ccc(C2CC(NC(=O)C3(c4ccc5c(c4)OC(F)(F)O5)CC3)c3ccccc3O2)cc1OC` (centres unmarked) [Example 69, 1-(2,2-difluoro-1,3-benzodioxol-5-yl)-N-[2-(3,4-dimethoxyphenyl)-3,4-dihydro-2H-chromen-4-yl]cyclopropanecarboxamide], the pEC50 is 5.67 and the Emax amounted to 109%.

`O=C(NC1CC(c2cccc(Cl)c2)Oc2ccccc21)C1(c2ccc3c(c2)OC(F)(F)O3)CC1` (centres unmarked) [Example 70, N-[2-(3-chlorophenyl)-3,4-dihydro-2H-chromen-4-yl]-1-(2,2-difluoro-1,3-benzodioxol-5-yl)cyclopropanecarboxamide] showed a pEC50 of 5.16 and an Emax of 94%.

Consider `O=C(NC1CC(c2ccc(F)cc2)Oc2ccccc21)C1(c2ccc3c(c2)OC(F)(F)O3)CC1` (centres unmarked) [Example 71, 1-(2,2-difluoro-1,3-benzodioxol-5-yl)-N-[2-(4-fluorophenyl)-3,4-dihydro-2H-chromen-4-yl]cyclopropanecarboxamide], for which the pEC50 is 5.55 and the Emax came to 91%.

On to `COc1ccc2c(c1)C(NC(=O)C1(c3ccc4c(c3)OC(F)(F)O4)CC1)C(Cc1ccc(OC)c(OC)c1)CO2` (centres unmarked) [Example 72, 1-(2,2-difluoro-1,3-benzodioxol-5-yl)-N-[3-(3,4-dimethoxybenzyl)-6-methoxy-3,4-dihydro-2H-chromen-4-yl]cyclopropanecarboxamide], for which the pEC50 is 5.60 and the Emax was determined as 71%.

As to `O=C(NC1c2ccccc2OCC1Cc1ccccc1)C1(c2ccc3c(c2)OC(F)(F)O3)CC1` (centres unmarked) [Example 73, N-(3-benzyl-3,4-dihydro-2H-chromen-4-yl)-1-(2,2-difluoro-1,3-benzodioxol-5-yl)cyclopropanecarboxamide], the pEC50 is 5.12 and the Emax was 57%.

`CCC1(CC)C[C@@H](NC(=O)C2(c3ccc4c(c3)OC(F)(F)O4)CC2)c2ccccc2O1` [Example 74, N-[(4R)-2,2-diethyl-3,4-dihydro-2H-chromen-4-yl]-1-(2,2-difluoro-1,3-benzodioxol-5-yl)cyclopropanecarboxamide] had a pEC50 of 5.26 and an Emax of 98%.

Molecule `O=C(N[C@@H]1CC(CF)(CF)Oc2ccccc21)C1(c2ccc3c(c2)OC(F)(F)O3)CC1` [Example 75, N-[(4R)-2,2-bis(fluoromethyl)-3,4-dihydro-2H-chromen-4-yl]-1-(2,2-difluoro-1,3-benzodioxol-5-yl)cyclopropanecarboxamide] had a pEC50 of 5.48 and an Emax of 75%.

Molecule `CC1(C)C[C@@H](NC(=O)C2(c3ccc4c(c3)OC(F)(F)O4)CC2)c2ccc(Cl)cc2O1` [Example 76, N-[(4R)-7-chloro-2,2-dimethyl-3,4-dihydro-2H-chromen-4-yl]-1-(2,2-difluoro-1,3-benzodioxol-5-yl)cyclopropanecarboxamide] gave a pEC50 of 5.52 and an Emax of 105%.

In turn, `O=C(N[C@@H]1CC2(CCCC2)Oc2ccccc21)C1(c2ccc3c(c2)OC(F)(F)O3)CC1` [Example 78, 1-(2,2-difluoro-1,3-benzodioxol-5-yl)-N-[(4R)-3,4-dihydrospiro[chromene-2,1′-cyclopentan]-4-yl]cyclopropanecarboxamide] had a pEC50 of 5.28 and an Emax of 95%.

Regarding `O=C(N[C@@H]1CC(CF)(CF)Oc2cc(F)ccc21)C1(c2ccc3c(c2)OC(F)(F)O3)CC1` [Example 79, 1-(2,2-difluoro-1,3-benzodioxol-5-yl)-N-[(4R)-7-fluoro-2,2-bis(fluoromethyl)-3,4-dihydro-2H-chromen-4-yl]cyclopropanecarboxamide], the pEC50 is 5.14 and the Emax is 117%.

The molecule `C[C@@]1(CF)C[C@@H](NC(=O)C2(c3ccc4c(c3)OC(F)(F)O4)CC2)c2ccc(C(F)(F)F)cc2O1` [Example 80, 1-(2,2-difluoro-1,3-benzodioxol-5-yl)-N-[(2S,4R)-2-(fluoromethyl)-2-methyl-7-(trifluoromethyl)-3,4-dihydro-2H-chromen-4-yl]cyclopropanecarboxamide] showed a pEC50 of 5.81 and a maximal effect (Emax) of 114%.

`C[C@]1(C(F)F)C[C@@H](NC(=O)C2(c3ccc4c(c3)OC(F)(F)O4)CC2)c2ccccc2O1` [Example 81, 1-(2,2-difluoro-1,3-benzodioxol-5-yl)-N-[(2R,4R)-2-(difluoromethyl)-2-methyl-3,4-dihydro-2H-chromen-4-yl]cyclopropanecarboxamide] gave a pEC50 of 5.35 and an Emax of 98%.

`C[C@@]1(C(F)F)C[C@@H](NC(=O)C2(c3ccc4c(c3)OC(F)(F)O4)CC2)c2ccccc2O1` [Example 82, 1-(2,2-difluoro-1,3-benzodioxol-5-yl)-N-[(2S,4R)-2-(difluoromethyl)-2-methyl-3,4-dihydro-2H-chromen-4-yl]cyclopropanecarboxamide] had a pEC50 of 5.57 and an Emax of 97%.

Turning to `C[C@@]1(C(F)F)C[C@@H](NC(=O)C2(c3ccc4c(c3)OC(F)(F)O4)CC2)c2ccc(Cl)cc2O1` [Example 83, N-[(2S,4R)-7-chloro-2-(difluoromethyl)-2-methyl-3,4-dihydro-2H-chromen-4-yl]-1-(2,2-difluoro-1,3-benzodioxol-5-yl)cyclopropanecarboxamide], the pEC50 is 5.57 and the Emax stood at 106%.

`C[C@]1(C(F)F)C[C@@H](NC(=O)C2(c3ccc4c(c3)OC(F)(F)O4)CC2)c2ccc(Cl)cc2O1` [Example 84, N-[(2R,4R)-7-chloro-2-(difluoromethyl)-2-methyl-3,4-dihydro-2H-chromen-4-yl]-1-(2,2-difluoro-1,3-benzodioxol-5-yl)cyclopropanecarboxamide] showed a pEC50 of 5.65 and an Emax of 91%.

Molecule `C[C@@]1(C(F)(F)F)C[C@@H](NC(=O)C2(c3ccc4c(c3)OC(F)(F)O4)CC2)c2ccccc2O1` [Example 85, 1-(2,2-difluoro-1,3-benzodioxol-5-yl)-N-[(2S,4R)-2-methyl-2-(trifluoromethyl)-3,4-dihydro-2H-chromen-4-yl]cyclopropanecarboxamide] showed a pEC50 of 5.17 and an Emax of 108%.

Molecule `CC1(C)C[C@@H](NC(=O)C2(c3ccc4c(c3)OC(F)(F)O4)CC2)c2ccc(F)cc2O1` [Example 86, 1-(2,2-difluoro-1,3-benzodioxol-5-yl)-N-[(4R)-7-fluoro-2,2-dimethyl-3,4-dihydro-2H-chromen-4-yl]cyclopropanecarboxamide] showed a pEC50 of 5.46 and an Emax of 101%.

As to `O=C(N[C@@H]1CC(CF)(CF)Oc2cc(Cl)ccc21)C1(c2ccc3c(c2)OC(F)(F)O3)CC1` [Example 87, N-[(4R)-7-chloro-2,2-bis(fluoromethyl)-3,4-dihydro-2H-chromen-4-yl]-1-(2,2-difluoro-1,3-benzodioxol-5-yl)cyclopropanecarboxamide], the pEC50 is 5.33 and the Emax was 146%.

For the molecule `CC1(C)C[C@@H](NC(=O)C2(c3ccc4c(c3)OC(F)(F)O4)CC2)c2ccc(F)c(Cl)c2O1` [Example 90, N-[(4R)-8-chloro-7-fluoro-2,2-dimethyl-3,4-dihydro-2H-chromen-4-yl]-1-(2,2-difluoro-1,3-benzodioxol-5-yl)cyclopropanecarboxamide], the pEC50 is 5.46 and the Emax came to 42%.

Regarding `COc1ccc2c(c1)OCC(Cc1ccc(OC)c(OC)c1)C2NC(=O)C1(c2ccc3c(c2)OC(F)(F)O3)CC1` (centres unmarked) [Example 91, 1-(2,2-difluoro-1,3-benzodioxol-5-yl)-N-[3-(3,4-dimethoxybenzyl)-7-methoxy-3,4-dihydro-2H-chromen-4-yl]cyclopropanecarboxamide], the pEC50 is 5.57 and the Emax was determined as 82%.

In turn, `CC(C)(C)OC(=O)N1CCC2(CC1)CC(NC(=O)C1(c3ccc4c(c3)OC(F)(F)O4)CC1)c1ccc(F)cc1O2` (centres unmarked) [Example 92, tert-butyl 4-({[1-(2,2-difluoro-1,3-benzodioxol-5-yl)cyclopropyl]carbonyl}amino)-7-fluoro-3,4-dihydro-1′H-spiro[chromene-2,4′-piperidine]-1′-carboxylate] showed a pEC50 of 5.59 and an Emax of 71%.

In turn, `O=C(NC1CC2(CCNCC2)Oc2cc(F)ccc21)C1(c2ccc3c(c2)OC(F)(F)O3)CC1` (centres unmarked) [Example 93, 1-(2,2-difluoro-1,3-benzodioxol-5-yl)-N-(7-fluoro-3,4-dihydrospiro[chromene-2,4′-piperidin]-4-yl)cyclopropanecarboxamide] gave a negative logarithm of the EC50 (pEC50) of 5.55 and an Emax of 26%.

For `COCCOc1ccc2c(c1)O[C@@H](c1cccc(C(=O)OC)c1)C[C@H]2NC(=O)C1(c2ccc3c(c2)OC(F)(F)O3)CC1` [Example 94, methyl 3-[(2R,4R)-4-({[1-(2,2-difluoro-1,3-benzodioxol-5-yl)cyclopropyl]carbonyl}amino)-7-(2-methoxyethoxy)-3,4-dihydro-2H-chromen-2-yl]benzoate], the pEC50 was 6.03 and the Emax stood at 119%.

For the origin of these results see US9642831B2, “Substituted chromanes and method of use” (AbbVie S.á.r.l., priority 2014, dated 2017).
